In the supplement of paper PMC5579334:
± gives the standard deviation of the averaged measurements.

Assays:
[1] = tested on: S462; experiment: % inhibition of CellTiter-Glo viability at highest tested concentration (72 h), relative to DMSO and benzethonium chloride controls; higher = more inhibition
In short: (§1)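 For this screen, 384-well plates were preprinted with each compound at five concentrations in 10-fold steps and seeded with MPNST cell lines or primary human Schwann cells at 750–1000 cells per well. Incubation lasted 72 h at 37 °C, 5% CO2, and CellTiter-Glo ATP luminescence, scaled between vehicle and positive-control wells and averaged over duplicates where available, served as viability. Logistic fits with four parameters were applied. Relative IC50 (censored at the top concentration) and drug sensitivity score derive from these fits, and percent inhibition is at the top concentration.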

[2] = tested on: HS-Sch-2; experiment: as above
In short: as §1

[3] = tested on: STS26T; experiment: as above
In short: as §1

[4] = tested on: HS-PSS; experiment: as above
In short: as §1

[5] = tested on: HSC1 (primary human Schwann cells); experiment: as above
In short: as §1

[6] = tested on: S1507-2; experiment: as above
In short: as §1

[7] = tested on: YST-1; experiment: as above
In short: as §1

[8] = tested on: HSC2 (primary human Schwann cells); experiment: as above
In short: as §1

[9] = tested on: ST8814; experiment: as above
In short: as §1

[10] = tested on: STS26T; experiment: drug sensitivity score (DSS, CellTox-Green cytotoxicity, 72 h) (DSS (dimensionless)); higher = more cytotoxic; extreme values may be limits of the assay
In short: (§2)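 MPNST cell lines and primary human Schwann cells were grown for 72 h at 37 °C in 384-well plates containing five 10-fold compound dilutions. CellTox-Green, added before seeding at a final 1:1000 dilution, gave fluorescence from DNA released by disrupted cells, and signals were scaled to vehicle and positive-control wells. Curves were fitted with a four-parameter logistic model. Drug sensitivity score and relative IC50 come from these fits, with IC50 censored at the top concentration.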

[11] = tested on: HS-PSS; experiment: as above
In short: as §2

[12] = tested on: HSC1 (primary human Schwann cells); experiment: as above
In short: as §2

[13] = tested on: S1507-2; experiment: as above
In short: as §2

[14] = tested on: HSC2 (primary human Schwann cells); experiment: as above
In short: as §2

[15] = tested on: ST8814; experiment: as above
In short: as §2

[16] = tested on: S462; experiment: drug sensitivity score (DSS, CellTiter-Glo viability, 72 h) (DSS (dimensionless)); higher = more sensitive; extreme values may be limits of the assay
In short: as §1

[17] = tested on: HS-Sch-2; experiment: as above
In short: as §1

[18] = tested on: STS26T; experiment: as above
In short: as §1

[19] = tested on: HS-PSS; experiment: as above
In short: as §1

[20] = tested on: HSC1 (primary human Schwann cells); experiment: as above
In short: as §1

[21] = tested on: S1507-2; experiment: as above
In short: as §1

[22] = tested on: YST-1; experiment: as above
In short: as §1

[23] = tested on: HSC2 (primary human Schwann cells); experiment: as above
In short: as §1

[24] = tested on: ST8814; experiment: as above
In short: as §1

SMILES | % inhibition [1] [%] | % inhibition [2] [%] | % inhibition [3] [%] | % inhibition [4] [%] | % inhibition [5] [%] | % inhibition [6] [%] | % inhibition [7] [%] | % inhibition [8] [%] | % inhibition [9] [%] | drug sensitivity score [10] | drug sensitivity score [11] | drug sensitivity score [12] | drug sensitivity score [13] | drug sensitivity score [14] | drug sensitivity score [15] | drug sensitivity score [16] | drug sensitivity score [17] | drug sensitivity score [18] | drug sensitivity score [19] | drug sensitivity score [20] | drug sensitivity score [21] | drug sensitivity score [22] | drug sensitivity score [23] | drug sensitivity score [24]
COc1cc2ncnc(Nc3ccc(F)c(Cl)c3)c2cc1NC(=O)/C=C/CN1CCCCC1 [Dacomitinib] (max concentration tested 1000 nM) | 7.49 ± 5.3 | 32.6 | 13.6 | 35.4 | 12.1 | 24.7 ± 9.1 | 9.37 | 19.3 | 16.4 | 0 | 1.85 | 0 | 1.18 ± 1.6 | 0 | 0 | 0.0398 ± 0.056 | 2.81 | 0.0007 | 3 | 0.027 | 1.41 ± 1.5 | 0 | 0.456 | 0.993
Cc1c2oc3c(C)ccc(C(=O)N[C@@H]4C(=O)N[C@H](C(C)C)C(=O)N5CCC[C@H]5C(=O)N(C)CC(=O)N(C)[C@@H](C(C)C)C(=O)O[C@@H]4C)c3nc-2c(C(=O)N[C@@H]2C(=O)N[C@H](C(C)C)C(=O)N3CCC[C@H]3C(=O)N(C)CC(=O)N(C)[C@@H](C(C)C)C(=O)O[C@@H]2C)c(N)c1=O [Dactinomycin] (max concentration tested 1000 nM) | 99.1 ± 1.6 | 102 | 99 | 86.7 | 83 | 87 ± 3.5 | 101 | 89.2 | 85.6 | 25.8 | 6.19 | 12.7 | 5.68 ± 3.9 | 14.7 | 5.68 | 32.3 ± 1.7 | 32.5 | 31.9 | 25.1 | 30.8 | 23.4 ± 0.57 | 37.4 | 33.5 | 25.3
Cn1c(=O)n(-c2ccc(C(C)(C)C#N)cc2)c2c3cc(-c4cnc5ccccc5c4)ccc3ncc21 [Dactolisib] (max concentration tested 1000 nM) | 61 ± 0.72 | 61.8 | 67.7 | 69.8 | 75 | 66 ± 2.8 | 63.8 | 78.3 | 64 | 0 | 0.12 | 0 | 0 | 0 | 0 | 13.2 ± 0.72 | 13.9 | 17.2 | 14.4 | 19.4 | 15.8 ± 2.9 | 14.7 | 19.4 | 14.3
CO[C@@H](C(=O)N1Cc2[nH]nc(NC(=O)c3ccc(N4CCN(C)CC4)cc3)c2C1)c1ccccc1 [Danusertib] (max concentration tested 10000 nM) | 88.7 ± 1.7 | 76.3 | 52.5 | 80.7 | 88.1 | 66.7 ± 10 | 46.4 | 90.9 | 85.7 | 3.88 | 2.75 | 6.43 | 1.16 ± 0.24 | 7.05 | 6.94 | 13.9 ± 0.31 | 11.1 | 5.54 | 8.49 | 11.4 | 8.76 ± 2 | 12.9 | 10.4 | 8.83
O=C(/C=C/c1cccnc1)NCCCCC1CCN(C(=O)c2ccccc2)CC1 [Daporinad] (max concentration tested 1000 nM) | 100.3 ± 0.6 | 101 | 95.5 | 90.9 | 70.9 | 87.9 ± 6.3 | 101 | 83.4 | 93.2 | 9.24 | 0 | 0 | 0 | 0 | 0 | 28.6 ± 0.7 | 29.8 | 16.4 | 25 | 18.8 | 15.02 ± 0.15 | 31.1 | 21.9 | 24.1
Cc1nc(Nc2ncc(C(=O)Nc3c(C)cccc3Cl)s2)cc(N2CCN(CCO)CC2)n1 [Dasatinib] (max concentration tested 1000 nM) | 30.9 ± 1.7 | 58.5 | 64.8 | 19.3 | 60 | 82.6 ± 2.6 | 20.6 | 49.2 | 65.5 | 3.95 | 0 | 0 | 1.53 ± 1.1 | 0 | 4.56 | 4.46 ± 0.87 | 7.09 | 11.7 | 0.97 | 8.49 | 12.3 ± 1.8 | 4.94 | 5.78 | 10.2
COc1cccc2c1C(=O)c1c(O)c3c(c(O)c1C2=O)C[C@@](O)(C(C)=O)C[C@@H]3O[C@H]1C[C@H](N)[C@H](O)[C@H](C)O1 [Daunorubicin] (max concentration tested 1000 nM) | 98.64 ± 0.44 | 102 | 98.5 | 88.2 | 99.9 | 96.11 ± 0.088 | 101 | 101 | 88.3 | 3.13 | 0 | 2.35 | 0 | 3.16 | 1.13 | 14.9 ± 0.27 | 10.6 | 12.9 | 9.45 | 10.4 | 9.24 ± 0.51 | 17.9 | 12.7 | 9.95
Nc1ncn([C@H]2C[C@H](O)[C@@H](CO)O2)c(=O)n1 [Decitabine] (max concentration tested 10000 nM) | 37.4 ± 5.4 | 27.8 | 16.2 | 4.62 | 20.3 | 16.3 ± 5.8 | 4.17 | 27.7 | 18.8 | 0 | 0 | 0 | 0.342 ± 0.48 | 0 | 0 | 4.99 ± 0.29 | 2.19 | 0.745 | 0 | 3.33 | 0.377 ± 0.53 | 0 | 1.61 | 1.82
